Assay [1] concerns the target KRAS G12D (Homo sapiens, UniProt P01116, G12D). Briefly: GDP-GTP exchange assay (KRAS G12D). In kind it is biochemical. The note with it: bodipy-GDP/GppNHp exchange with SOS1; 4 h pre-incubation, 2 h reaction. How it is done: (§1) The inhibitor potency of the exemplified compounds was determined in a fluorescence based guanine nucleotide exchange assay, which measures the exchange of bodipy-GDP (fluorescently labeled GDP) for GppNHp (Non-hydrolyzable GTP analog) to generate the active state of KRAS in the presence of SOS1 (guanine nucleotide exchange factor). Inhibitors were serially diluted in DMSO and a volume of 0.1 μL was transferred to the wells of a black low volume 384-well plate. 5 μL/well volume of bodipy-loaded KRAS G12D diluted to 2.5 nM in assay buffer (25 mM Hepes pH 7.5, 50 mM NaCl, 10 mM MgCl2 and 0.01% Brij-35) was added to the plate and pre-incubated with inhibitor for 4 h at r.t. Appropriate controls (enzyme with no inhibitor or with a G12D inhibitor) were included on the plate. The exchange was initiated by the addition of a 5 μL/well volume containing 1 mM GppNHp and 300 nM SOS1 in assay buffer. The 10 μL/well reaction concentration of the bodipy-loaded KRAS G12D, GppNHp, and SOS1 were 2.5 nM, 500 μM, and 150 nM, respectively. The reaction plates were incubated at r.t. for 2 h, a time estimated for complete GDP-GTP exchange in the absence of inhibitor. For the KRAS G12V mutant, similar guanine nucleotide exchange assays were used with 2.5 nM as final concentration for the bodipy loaded KRAS proteins and 3 h incubation after adding GppNHp-SOS1 mixture. A cyclic peptide described to selectively bind G12D mutant (Sakamoto et al., BBRC 484.3 (2017), 605-611) or internal compounds with confirmed binding were used as positive controls in the assay plates. Fluorescence intensities were measured on a PheraStar plate reader instrument (BMG Labtech) with excitation at 485 nm and emission at 520 nm.
(§2) Either GraphPad prism or Genedata Screener SmartFit was used to analyze the data. The IC50 values were derived by fitting the data to a four parameter logistic equation producing a sigmoidal dose-response curve with a variable Hill coefficient.
(§3) The symbol “⬆” indicates IC50 100 nM, “⬆⬆” indicates IC50 >100 nM but ≤1 μM; and “⬆⬆⬆” indicates IC50 is >1 μM but ≤5 μM, “⬆⬆⬆⬆” indicates IC50 is >5 μM but ≤10 μM. “NA” indicates IC50 not available.

Assay [2] addresses KRAS G12V (Homo sapiens, UniProt P01116, G12V). Briefly: GDP-GTP exchange assay (KRAS G12V). In kind it is biochemical. The note with it: bodipy-GDP/GppNHp exchange with SOS1; 3 h incubation after GppNHp-SOS1. As to the method:
as §1, §2, §3
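Further: one dagger IC50 up to 100 nM and two daggers above 100 nM up to 1 μM.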

Chain of KRAS G12V (P01116 1-188 isoform P01116-2 G12V): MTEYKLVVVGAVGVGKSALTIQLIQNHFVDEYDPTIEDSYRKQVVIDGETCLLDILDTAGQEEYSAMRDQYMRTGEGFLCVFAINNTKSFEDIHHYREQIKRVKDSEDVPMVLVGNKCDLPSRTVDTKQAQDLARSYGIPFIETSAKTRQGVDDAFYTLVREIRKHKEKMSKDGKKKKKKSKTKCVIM
Chain of KRAS G12D (P01116 1-188 isoform P01116-2 G12D): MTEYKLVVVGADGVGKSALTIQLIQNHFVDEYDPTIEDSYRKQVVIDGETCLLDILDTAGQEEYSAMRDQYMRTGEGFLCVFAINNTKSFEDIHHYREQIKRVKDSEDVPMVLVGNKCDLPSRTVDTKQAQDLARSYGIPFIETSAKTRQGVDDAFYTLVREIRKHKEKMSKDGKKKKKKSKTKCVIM

Turning to `Cc1nc2c(F)c(-c3cccc(Cl)c3Cl)c(CCC#N)cc2c2c1cc([C@H]1[C@H]3C[C@H](CN(c4cnc5cccnc5c4)C3)N1C(=O)C1CC1)n2[C@H]1[C@H]2CN[C@@H]1C2` (atropisomer, axis not shown; (Ra)) [Example 6, 3-((Ra)-1-((1R,4R,5S)-2-azabicyclo[2.1.1]hexan-5-yl)-2-((1S,5R,7R)-6-(cyclopropanecarbonyl)-3-(1,5-naphthyridin-3-yl)-3,6-diazabicyclo[3.2.1]octan-7-yl)-7-(2,3-dichlorophenyl)-6-fluoro-4-methyl-1H-pyrrolo[3,2-c]quinolin-8-yl)propanenitrile], in assay [1], the “G12D_exchange (KRAS_G12D exchange assay IC50)” value (“G12D_exchange” for short) is on record as “†”. Further, the “G12V_exchange (KRAS_G12V exchange assay IC50)” value (“G12V_exchange” for short) in assay [2] is “†”. Take `Cc1nc2c(F)c(-c3cccc(Cl)c3Cl)c(CCC#N)cc2c2c1cc([C@H]1[C@H]3C[C@H](CN(c4cnn(C)c4)C3)N1C(=O)C1CC1)n2[C@H]1[C@H]2CN[C@@H]1C2` (atropisomer, axis not shown; (Ra)) [Example 11, 3-((Ra)-1-((1R,4R,5S)-2-azabicyclo[2.1.1]hexan-5-yl)-2-((1S,5R,7R)-6-(cyclopropanecarbonyl)-3-(1-methyl-1H-pyrazol-4-yl)-3,6-diazabicyclo[3.2.1]octan-7-yl)-7-(2,3-dichlorophenyl)-6-fluoro-4-methyl-1H-pyrrolo[3,2-c]quinolin-8-yl)propanenitrile]: the “G12D_exchange” value in assay [1] is “†”. The “G12V_exchange” value in assay [2] was “†”. With `Cc1nc2c(F)c(-c3cccc(Cl)c3Cl)c(CCC#N)cc2c2c1cc([C@H]1[C@H]3C[C@H](CN(c4ccccc4C(F)(F)F)C3)N1C(=O)C1CC1)n2[C@H]1[C@H]2CN[C@@H]1C2` (atropisomer, axis not shown; (Ra)) [Example 16, 3-((Ra)-1-((1R,4R,5S)-2-azabicyclo[2.1.1]hexan-5-yl)-2-((1S,5R,7R)-6-(cyclopropanecarbonyl)-3-(2-(trifluoromethyl)phenyl)-3,6-diazabicyclo[3.2.1]octan-7-yl)-7-(2,3-dichlorophenyl)-6-fluoro-4-methyl-1H-pyrrolo[3,2-c]quinolin-8-yl)propanenitrile], the “G12D_exchange” value in assay [1] is reported as “†††”. Moreover, the “G12V_exchange” value in assay [2] was “†††”. As for `Cc1nc2c(F)c(-c3cccc(Cl)c3Cl)c(CCC#N)cc2c2c1cc([C@H]1[C@H]3C[C@H](CN(c4cc(C(F)(F)F)cc(C(F)(F)F)c4)C3)N1C(=O)C1CC1)n2[C@H]1[C@H]2CN[C@@H]1C2` (atropisomer, axis not shown; (Ra)) [Example 18, 3-((Ra)-1-((1R,4R,5S)-2-azabicyclo[2.1.1]hexan-5-yl)-2-((1S,5R,7R)-3-(3,5-bis(trifluoromethyl)phenyl)-6-(cyclopropanecarbonyl)-3,6-diazabicyclo[3.2.1]octan-7-yl)-7-(2,3-dichlorophenyl)-6-fluoro-4-methyl-1H-pyrrolo[3,2-c]quinolin-8-yl)propanenitrile], the “G12D_exchange” value in assay [1] is on record as “††”. In addition, the “G12V_exchange” value in assay [2] is listed as “†”. Taken in the same sequence, the figures for `Cc1nc2c(F)c(-c3cccc(Cl)c3Cl)c(CCC#N)cc2c2c1cc([C@H]1[C@H]3C[C@H](CN(c4ccncc4)C3)N1C(=O)C1CC1)n2[C@H]1[C@H]2CN[C@@H]1C2` (atropisomer, axis not shown; (Ra)) [Example 37, 3-((Ra)-1-((1R,4R,5S)-2-azabicyclo[2.1.1]hexan-5-yl)-2-((1S,5R,7R)-6-(cyclopropanecarbonyl)-3-(pyridin-4-yl)-3,6-diazabicyclo[3.2.1]octan-7-yl)-7-(2,3-dichlorophenyl)-6-fluoro-4-methyl-1H-pyrrolo[3,2-c]quinolin-8-yl)propanenitrile] were “†” and “†”. In the case of `Cc1nc2c(F)c(-c3cccc(Cl)c3Cl)c(CCC#N)cc2c2c1cc([C@H]1[C@H]3C[C@H](CN(c4cccc(=O)n4C)C3)N1C(=O)C1CC1)n2[C@H]1[C@H]2CN[C@@H]1C2` (atropisomer, axis not shown; (Ra)) [Example 57, 3-((Ra)-1-((1R,4R,5S)-2-azabicyclo[2.1.1]hexan-5-yl)-2-((1S,5R,7R)-6-(cyclopropanecarbonyl)-3-(1-methyl-6-oxo-1,6-dihydropyridin-2-yl)-3,6-diazabicyclo[3.2.1]octan-7-yl)-7-(2,3-dichlorophenyl)-6-fluoro-4-methyl-1H-pyrrolo[3,2-c]quinolin-8-yl)propanenitrile], the “G12D_exchange” value in assay [1] is reported as “††”. The “G12V_exchange” value in assay [2] is listed as “†”. As to `Cc1nc2c(F)c(-c3cccc(Cl)c3Cl)c(CCC#N)cc2c2c1cc([C@H]1[C@H]3C[C@H](CN(c4ccnc(C#N)c4)C3)N1C(=O)C1CC1)n2[C@H]1[C@H]2CN[C@@H]1C2` (atropisomer, axis not shown; (Ra)) [Example 63, 4-((1S,5R,7R)-7-((Ra)-1-((1R,4R,5S)-2-azabicyclo[2.1.1]hexan-5-yl)-8-(2-cyanoethyl)-7-(2,3-dichlorophenyl)-6-fluoro-4-methyl-1H-pyrrolo[3,2-c]quinolin-2-yl)-6-(cyclopropanecarbonyl)-3,6-diazabicyclo[3.2.1]octan-3-yl)picolinonitrile], the “G12D_exchange” value in assay [1] was “†”. In assay [2], the “G12V_exchange” value was “†”. As for `Cc1nc2c(F)c(-c3cccc(Cl)c3Cl)c(CCC#N)cc2c2c1cc([C@H]1[C@H]3C[C@H](CN(c4cc(C)n(C)c(=O)c4)C3)N1C(=O)C1CC1)n2[C@H]1[C@H]2CN[C@@H]1C2` (atropisomer, axis not shown; (Ra)) [Example 66, 3-((Ra)-1-((1R,4R,5S)-2-azabicyclo[2.1.1]hexan-5-yl)-2-((1S,5R,7R)-6-(cyclopropanecarbonyl)-3-(1,6-dimethyl-2-oxo-1,2-dihydropyridin-4-yl)-3,6-diazabicyclo[3.2.1]octan-7-yl)-7-(2,3-dichlorophenyl)-6-fluoro-4-methyl-1H-pyrrolo[3,2-c]quinolin-8-yl)propanenitrile], the “G12D_exchange” value in assay [1] is reported as “†”. Further, in assay [2], the “G12V_exchange” value is on record as “†”. On to `Cc1c(F)ccnc1N1C[C@@H]2C[C@H](C1)N(C(=O)C1CC1)[C@H]2c1cc2c(C)nc3c(F)c(-c4cccc(Cl)c4Cl)c(CCC#N)cc3c2n1[C@H]1[C@H]2CN[C@@H]1C2` (atropisomer, axis not shown; (Ra)) [Example 75, 3-((Ra)-1-((1R,4R,5S)-2-azabicyclo[2.1.1]hexan-5-yl)-2-((1S,5R,7R)-6-(cyclopropanecarbonyl)-3-(4-fluoro-3-methylpyridin-2-yl)-3,6-diazabicyclo[3.2.1]octan-7-yl)-7-(2,3-dichlorophenyl)-6-fluoro-4-methyl-1H-pyrrolo[3,2-c]quinolin-8-yl)propanenitrile], for which the “G12D_exchange” value in assay [1] is given as “††”. In assay [2], the “G12V_exchange” value is given as “†”. For `COc1nccc(N2C[C@@H]3C[C@H](C2)N(C(=O)C2CC2)[C@H]3c2cc3c(C)nc4c(F)c(-c5cccc(Cl)c5Cl)c(CCC#N)cc4c3n2[C@H]2[C@H]3CN[C@@H]2C3)c1C` (atropisomer, axis not shown; (Ra)) [Example 77, 3-((Ra)-1-((1R,4R,5S)-2-azabicyclo[2.1.1]hexan-5-yl)-2-((1S,5R,7R)-6-(cyclopropanecarbonyl)-3-(2-methoxy-3-methylpyridin-4-yl)-3,6-diazabicyclo[3.2.1]octan-7-yl)-7-(2,3-dichlorophenyl)-6-fluoro-4-methyl-1H-pyrrolo[3,2-c]quinolin-8-yl)propanenitrile], in that order: “††” and “†”. Regarding `Cc1nc2c(F)c(-c3cccc(Cl)c3Cl)c(CCC#N)cc2c2c1cc([C@H]1[C@H]3C[C@H](CN(c4cc(C(C)(F)F)ncn4)C3)N1C(=O)CO)n2[C@H]1[C@H]2CN[C@@H]1C2` (atropisomer, axis not shown; (Ra)) [Example 129, 3-((Ra)-1-((1R,4R,5S)-2-azabicyclo[2.1.1]hexan-5-yl)-7-(2,3-dichlorophenyl)-2-((1 S,5R,7R)-3-(6-(1,1-difluoroethyl)pyrimidin-4-yl)-6-(2-hydroxyacetyl)-3,6-diazabicyclo[3.2.1]octan-7-yl)-6-fluoro-4-methyl-1H-pyrrolo[3,2-c]quinolin-8-yl)propanenitrile], the “G12V_exchange” value in assay [2] is on record as “†”.

(Values after patent US20250195536A1, “BICYCLOOCTANE KRAS INHIBITORS” (Incyte Corporation, priority 2023, published 2025).)
